Test results published in article PMC9271048, “Probing strigolactone perception mechanisms with rationally designed small-molecule agonists stimulating germination of root parasitic weeds” (Nature Communications, 2022).
Like-named read-outs stand apart in the source and are kept apart here.

Assays:
P. aegyptiaca seeds = assay: P. aegyptiaca seed germination assay; format: in vivo, Phelipanche aegyptiaca; set-up: P. aegyptiaca germination EC50 values, source data average: unit not given here; conditions: for P. aegyptiaca germination(%): Supplementary Table 1, compounds tested at 10 μM, means ± SD, n = 3; for P. aegyptiaca germination EC50 values, source data average: source data of Fig. 2c and Supplementary Fig. 8b
Protocol: P. aegyptiaca seeds were harvested from Xinjiang province, China in 2017. The seeds were surface sterilized using 1% NaClO solution for 2 min and then washed with distilled water six times. For seed germination assay, about 20 pieces of glass fiber-filter paper discs (15 mm diameter, Whatman GF/B) were placed separately on two layers of filter papers (9 cm diameter, Whatman) in a Petri dish. Five milliliters of distilled water was added to each Petri dish to wet the papers. Approximately 40–90 sterilized seeds were spread onto each glass fiber-filter paper disc. After the seeds were conditioned in the dark at 25 °C for 4 days[48], glass fiber-filter paper discs were blotted dry on filter papers (9 cm) and transferred to the wells of 24-well cell culture plates. The testing compounds were dissolved in acetone and diluted with H2O (VH2O/Vacetone = 999/1) just before use[49]. rac-GR24 and 1‰ acetone solution were used as positive and negative controls, respectively. One hundred microliters of the test solution was added to each well of the plates, and all treatments were performed in three biological repeats. The plates were sealed and incubated in the dark at 25 °C for a week. The experiments were performed at least three times. The germinated seeds were observed by using an electronic magnifier at ×20 magnification.

ShHTL7 [1] = target: T1, ShHTL7 (Striga hermonthica, UniProt A0A0M3PNA2); assay: Competitive inhibition of ShHTL7 with Yoshimulactone Green (YLG) as substrate; format: biochemical
Protocol: Based on the structural feature of the lead compound 2h, we selected three regions to perform further modification (Supplementary Fig. 6), to try to further improve bioactivity. Insertion of a carbonyl group between the bicyclo[2.2.1]hept-5-en-2-yl group and the piperazine ring was detrimental to binding affinity (Supplementary Fig. 6, region A). Removal of an oxygen atom in region B was found unfavorable to binding affinity as well. Therefore, we focused on modifying the benzene ring (region C) for 2h. A series of compounds with different groups at region C was synthesized (Supplementary Scheme 1). […] As SPR just measures the binding ability, another independent assay by using Yoshimulactone Green (YLG) as the fluorescent substrate was performed to determine the half-maximal inhibitory concentration (IC50) of these compounds against ShHTL7[22].
The excitation and emission wavelengths of YLG are 480 and 520 nm, respectively. We used a fluorescence spectrophotometer (CARY Eclipse) to detect the fluorescence intensity change of YLG during the enzymatic hydrolysis assay process. All the testing compounds and YLG were dissolved in DMSO and prepared as stock solutions just before use. […] The changes of fluorescence at 520 nm of each well were recorded every 1 min for 30 min. Using the reaction mixture without adding enzyme and tested compounds as the background control. After subtracting the background hydrolysis, a linear fluorescence increase in 8 min was used for further inspection. The IC50 values were determined via fitting relative inhibition percentages with the varying concentrations of compounds in Microsoft Excel.

ShHTL7 [2] = target: T1, ShHTL7; assay: biochemical; format: binding
Protocol: We used a sensitive, high-throughput Surface plasmon resonance (SPR) method to examine the binding affinities of the 51 candidates to the recombinant ShHTL7 protein, which was immobilized on the CM5 sensor chip. rac-GR24 was used as a positive control.
The interactions of small molecules with recombinant ShHTL7 were evaluated using the Biacore T200 system (GE Healthcare, USA) at 25 °C[47]. The purified ShHTL7 protein was immobilized on a CM5 sensor chip using the standard amine coupling procedure. […] PBS-P (10 mM phosphate buffer, 2.7 mM KCl, 137 mM NaCl, 0.05% Surfactant P20) containing 0.5% DMSO was used as the running buffer. For the screening experiments, candidates with different structures at 50 μM in the running buffer were injected individually at a flow rate of 30 μL min^−1. For binding affinity studies, compounds with different concentrations in running buffer were used. During the experiments, both the contact and dissociation times were set as 1 min. Data analysis was performed using the Biacore Evaluation Software (T200 Version 2.0). The affinity values (KD) were obtained by the kinetics analysis or the steady-state affinity method.

ShHTL7 [3] = target: T1, ShHTL7; assay: ShHTL7-hydrolysis reaction analysis (HPLC); format: biochemical; conditions: authors' response to reviewer
Protocol: Compounds 4a, (R)- and (S)-4a, 4g-i, and rac-GR24 were dissolved in DMSO and prepared as stock solution ([…]) just before use. A 200 μL of the reaction solution consisting of PBS buffer (pH 7.3), 10 μM samples, and 10 μg recombinant ShHTL7 or its mutants was incubated at 30 °C for 30 min; with the reaction solution (200 μL) containing PBS buffer (pH 7.3) and 10 μM samples as the blank control[40],[52]. Subsequently, the reaction was terminated by adding 200 μL of methanol, and then the reaction mixture was shaken for 10 s and centrifuged at 5310 × g for 60 s. The supernatant was filtered and the remaining amount of samples was analyzed by HPLC. The relative percentages of hydrolysis were obtained by using the amount of compounds in blank control as reference.
Supplementary Fig. 11. Hydrolysis of 4a, (R)-4a, (S)-4a, 4g-i, and rac-GR24 by ShHTL7 at 30 °C for 30 min. The remaining amounts of compounds in recombinant ShHTL7 protein and buffer solution were determined by HPLC analysis. The relative percentages of hydrolysis were calculated by using the amount of compounds in the buffer as reference. The error bar indicates SD (n = 3 biologically independent experiments).
(1 picture or pasted object on this page, not shown here)

[4] = YLG used as the substrate, means ± SD, n = 3, read-out: IC50 (Supplementary Table 1)
[5] = wild-type ShHTL7, average of 3, source data of Fig. 2a,b, Supplementary Figs. 8a, 9a, 20b, read-out: IC50, competitive ShHTL7 inhibition (YLG), source data average
[6] = Supplementary Table 7, binding affinities between ShHTL7 and agonists by SPR, read-out: KD/μM

T1 sequence (A0A0M3PNA2 entry or part of it): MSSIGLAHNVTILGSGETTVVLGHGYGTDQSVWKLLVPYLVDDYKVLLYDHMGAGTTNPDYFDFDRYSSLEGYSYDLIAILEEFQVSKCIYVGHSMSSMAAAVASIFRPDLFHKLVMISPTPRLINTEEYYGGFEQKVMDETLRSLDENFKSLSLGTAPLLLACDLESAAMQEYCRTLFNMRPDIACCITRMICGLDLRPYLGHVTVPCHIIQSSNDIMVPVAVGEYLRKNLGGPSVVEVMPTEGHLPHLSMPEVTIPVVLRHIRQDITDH

## Cc1ccc(CC(=O)N2CCN(CC3CC4C=CC3C4)CC2)cc1 (stereo not drawn) [3b]
P. aegyptiaca seeds
  P. aegyptiaca germination(%): 8.9%
ShHTL7 [1]; [4]
  IC50: 23.2 ± 1.59 µM

## Cc1ccccc1OCC(=O)N1CCN(CC2CC3C=CC2C3)CC1 (stereo not drawn) [3m]
P. aegyptiaca seeds
  P. aegyptiaca germination(%): 29.7%
ShHTL7 [1]; [4]
  IC50: 9.16 ± 1.2 µM

## O=C(c1cccs1)N1CCN(CC2CC=CCC2)CC1 (stereo not drawn) [2b]
ShHTL7 [2]
  Kd: 10.5 ± 0.67 µM

## O=C(COc1ccccc1)N1CCN(CC2CC3C=CC2C3)CC1 (stereo not drawn) [3l]
P. aegyptiaca seeds
  P. aegyptiaca germination(%): 26.3%
ShHTL7 [1]; [4]
  IC50: 18 ± 1.32 µM

## O=C(COc1ccc2ccccc2c1Br)N1CCN(CC2CC3C=CC2C3)CC1 (stereo not drawn) [3c]
P. aegyptiaca seeds
  P. aegyptiaca germination(%): 17.1%
ShHTL7 [1]; [4]
  IC50: 6.12 ± 0.34 µM

## O=C(C(c1ccccc1)c1ccccc1)N1CCN(CC2CC3C=CC2C3)CC1 (stereo not drawn) [2d]
ShHTL7 [2]
  Kd: 5.22 ± 0.66 µM

## O=C(COc1ccc([N+](=O)[O-])cc1Cl)N1CCN(CC2CC3C=CC2C3)CC1 (stereo not drawn) [3i]
P. aegyptiaca seeds
  P. aegyptiaca germination(%): 33.5%
ShHTL7 [1]; [4]
  IC50: 11.6 ± 0.61 µM

## C1=CC2CC1CC2CN1CCNCC1 (stereo not drawn) [ZJT1]
P. aegyptiaca seeds
  P. aegyptiaca germination(%): 1.6%
ShHTL7 [1]; YLG used as the substrate, read-out: IC50 (Supplementary Table 1), symbol
  IC50: > 400 µM

## CCCCOc1ccc(S(=O)(=O)N2CCN(C(=O)OC3C=C(C)C(=O)O3)CC2)cc1 (stereo not drawn) [SPL7, reference compound]
P. aegyptiaca seeds; average of 3
  P. aegyptiaca germination EC50 values, source data average: 7.443
ShHTL7 [1]; [5]
  IC50: 4.31 µM
ShHTL7 [2]; [6]
  Kd: 4.81 ± 0.02 µM

## CS(=O)(=O)c1ccc(OCC(=O)N2CCN(CC3CC4C=CC3C4)CC2)cc1 (stereo not drawn) [3q]
P. aegyptiaca seeds
  P. aegyptiaca germination(%): 34.8%
ShHTL7 [1]; [4]
  IC50: 24.1 ± 6.49 µM

## Cc1ccc(CCC(=O)N2CCN(CC3CC4C=CC3C4)CC2)cc1 (stereo not drawn) [3r]
P. aegyptiaca seeds
  P. aegyptiaca germination(%): 34.2±6.9%
ShHTL7 [1]; [4]
  IC50: 34.2 ± 6.9 µM

## O=C(c1ccc([N+](=O)[O-])cc1)N1CCN(CC2CC3C=CC2C3)CC1 (stereo not drawn) [2e]
ShHTL7 [2]
  Kd: 8.77 ± 0.11 µM
ShHTL7 [3]
  hydrolysis by ShHTL7: could not be hydrolyzed by ShHTL7

## O=C(COc1cc(Cl)ccc1Cl)N1CCN(CC2CC3C=CC2C3)CC1 (stereo not drawn) [3k]
P. aegyptiaca seeds
  P. aegyptiaca germination(%): 43.5%
ShHTL7 [1]; [4]
  IC50: 32.2 ± 1.99 µM

## CC1=CC(OC(=O)N2CCN(C(=O)C(F)(F)Oc3ccc(Br)cc3C)CC2)OC1=O (stereo not drawn) [4f]
P. aegyptiaca seeds; average of 3
  P. aegyptiaca germination EC50 values, source data average: 6.406
ShHTL7 [1]; [5]
  IC50: 4.25 µM
ShHTL7 [2]; [6]
  Kd: 1.96 ± 0.29 µM

## O=C(c1ccco1)N1CCN(CC2CC3C=CC2C3)CC1 (stereo not drawn) [2a]
ShHTL7 [2]; recombinant ShHTL7 immobilized on CM5 chip, 25 °C, read-out: KD (SPR)
  Kd: 12.8 ± 0.6 µM

## Cc1cccc(OCC(=O)N2CCN(CC3CC4C=CC3C4)CC2)c1 (stereo not drawn) [2f]
P. aegyptiaca seeds; 10 μM, Fig. 1d source data, average of 3
  germination of P. aegyptiaca seeds, source data average: 18.7364%
P. aegyptiaca seeds
  P. aegyptiaca germination(%): 20.5%
ShHTL7 [1]; IC50 (Supplementary Table 1), YLG used as the substrate, means ± SD, n = 3
  IC50: 10.7 ± 0.96 µM
ShHTL7 [2]
  Kd: 11.2 ± 0.16 µM
